# Experimental data published in patent US20080226758A1, “Lipoxygenase and Cyclooxygenase Inhibition” (priority 2006, published 2008).
# Values joined by “and” are separate entries in the source; they are usually repeats but may differ in a detail not shown here. Equal values may be shown once.
# What was measured:
# Assay type in all cases: biochemical
# 15-LO = target: T1, 15-LO (Oryctolagus cuniculus, UniProt P12530); assay: 15-LO assay (13-HPODE, spectrophotometric); details: rabbit reticulocytes; 13-HPODE spectrophotometrically
# T1 construct: endogenous in cells; host or cells: rabbit reticulocytes
# T1 sequence (P12530 1-663): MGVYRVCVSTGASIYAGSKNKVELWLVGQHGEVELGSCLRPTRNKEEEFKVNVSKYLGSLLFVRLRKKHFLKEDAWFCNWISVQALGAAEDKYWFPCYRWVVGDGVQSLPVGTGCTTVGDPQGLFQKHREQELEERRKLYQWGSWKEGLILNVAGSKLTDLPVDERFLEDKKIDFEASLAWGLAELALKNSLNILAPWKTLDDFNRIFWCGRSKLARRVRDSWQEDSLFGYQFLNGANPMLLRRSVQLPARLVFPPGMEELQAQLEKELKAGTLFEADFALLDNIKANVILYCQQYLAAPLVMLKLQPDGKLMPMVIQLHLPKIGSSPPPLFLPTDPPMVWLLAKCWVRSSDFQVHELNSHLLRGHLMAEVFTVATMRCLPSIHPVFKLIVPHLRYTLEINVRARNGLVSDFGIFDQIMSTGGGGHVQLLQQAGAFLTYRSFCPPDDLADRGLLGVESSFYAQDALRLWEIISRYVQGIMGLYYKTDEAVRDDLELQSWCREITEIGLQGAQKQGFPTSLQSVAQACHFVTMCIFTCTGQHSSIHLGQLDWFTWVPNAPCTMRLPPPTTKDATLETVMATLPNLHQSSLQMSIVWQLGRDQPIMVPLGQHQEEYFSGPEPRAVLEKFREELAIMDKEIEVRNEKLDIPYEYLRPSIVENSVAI
# Description: (§1) 5-LO and 15-LO assays: Human peripheral blood mononuclear cells (PBMC) cells and rabbits reticulocytes were used in the 5-LO and 15-LO bioassays, and the assays were conducted according to the protocols reported previously, with either linoleic acid or arachidonic acid as substrates. LO activity was measured by quantifying immunodetectable Leukotriene B4 (LTB4) specifically with enzyme immunoassay (EIA) in the 5-LO assay, or monitoring 13-hydroperoxy-9,11-octadecadienoic acid (13-HPODE) spectrophotometrically in the 15-LO assay.
# (§2) The results were expressed as either percentage inhibition, or IC50, for test samples and data represent the average ±SD of at least triplicate determinations.
# Human recombinant COX-2 = target: T2, Human recombinant COX-2 (Homo sapiens, UniProt P35354); assay: COX-2 inhibition assay (PGE2 EIA); details: human recombinant COX-2 expressed in Sf21 cells; 0.3 μM arachidonic acid
# T2 construct: purchased Sigma C-0858; host or cells: insect Sf21 cells
# T2 sequence (P35354 18-604): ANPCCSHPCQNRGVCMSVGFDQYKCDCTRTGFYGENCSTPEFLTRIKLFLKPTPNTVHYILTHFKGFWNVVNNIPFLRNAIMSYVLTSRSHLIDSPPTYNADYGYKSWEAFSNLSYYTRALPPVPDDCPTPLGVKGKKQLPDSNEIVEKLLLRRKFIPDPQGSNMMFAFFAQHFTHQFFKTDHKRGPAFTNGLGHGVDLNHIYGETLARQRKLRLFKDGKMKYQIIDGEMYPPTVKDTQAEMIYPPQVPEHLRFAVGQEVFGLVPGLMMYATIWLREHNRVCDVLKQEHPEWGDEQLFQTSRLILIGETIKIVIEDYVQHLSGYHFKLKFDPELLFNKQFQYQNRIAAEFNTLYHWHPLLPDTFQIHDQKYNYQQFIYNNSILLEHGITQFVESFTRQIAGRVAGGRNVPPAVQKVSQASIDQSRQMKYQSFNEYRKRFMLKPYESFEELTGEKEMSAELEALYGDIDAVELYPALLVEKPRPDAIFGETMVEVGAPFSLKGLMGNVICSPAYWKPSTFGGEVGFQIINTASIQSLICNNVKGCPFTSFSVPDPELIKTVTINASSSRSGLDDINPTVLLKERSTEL
# Description: COX-1 and COX-2 assays: COX-1 and -2 Inhibition assays were performed by the methods described previously with minor modifications. COX-2 enzyme was purchased from Sigma (Catalog # C-0858), and the PGE2 EIA kit from Amersham (Catalog # RPN 220). Human recombinant COX-2, expressed in insect Sf21 cells, and human platelets, respectively, were used in the COX-2 and COX-1 assays. The extract and partitions were dissolved in DMSO (Sigma, USA), and tested at 100 μg/mL (final concentration). The pure compounds were initially tested at 30 μM. […] Test samples were preincubated with 0.12 μg/ml enzyme in modified Tris-HCl buffer pH 7.7 (COX-2), and with cells (5×10^7/ml), in modified HEPES buffer pH 7.4 (COX-1) for 15 minutes at 37° C. The reactions were initiated by addition of 0.3 μM arachidonic acid (COX-2), and 100 μM arachidonic acid (COX-1), respectively, for another 5-minute incubation period, then terminated by further addition of 1 N HCl. An aliquot was then combined with the EIA kit for spectrophotometric determination of the quantity of PGE2 formed.
# as §2
# 5-LO = target: T3, 5-LO (Homo sapiens, UniProt P09917); assay: 5-LO assay (LTB4 by EIA); details: human PBMC
# T3 construct: endogenous in cells; host or cells: human peripheral blood mononuclear cells (PBMC)
# T3 sequence (P09917 1-674): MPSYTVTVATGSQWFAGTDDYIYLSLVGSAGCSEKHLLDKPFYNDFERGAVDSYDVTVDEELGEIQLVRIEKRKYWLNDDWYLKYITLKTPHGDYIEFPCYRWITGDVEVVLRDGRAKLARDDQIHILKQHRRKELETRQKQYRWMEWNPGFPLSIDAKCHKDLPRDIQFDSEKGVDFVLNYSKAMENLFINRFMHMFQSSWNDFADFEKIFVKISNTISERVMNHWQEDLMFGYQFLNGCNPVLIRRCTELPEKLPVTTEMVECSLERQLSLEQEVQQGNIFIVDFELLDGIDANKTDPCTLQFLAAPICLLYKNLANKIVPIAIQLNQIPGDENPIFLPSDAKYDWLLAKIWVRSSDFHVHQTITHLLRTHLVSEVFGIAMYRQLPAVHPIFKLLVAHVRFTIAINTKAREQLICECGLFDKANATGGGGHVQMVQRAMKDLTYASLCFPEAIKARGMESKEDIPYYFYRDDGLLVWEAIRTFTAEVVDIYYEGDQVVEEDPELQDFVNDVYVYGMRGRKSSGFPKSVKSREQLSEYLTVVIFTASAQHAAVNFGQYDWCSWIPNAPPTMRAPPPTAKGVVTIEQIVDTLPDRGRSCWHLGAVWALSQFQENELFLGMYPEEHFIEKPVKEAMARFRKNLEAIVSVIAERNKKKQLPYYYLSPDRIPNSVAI
# Description: as §1, §2
IC50 (15-LO) [µM],IC50 (5-LO),SMILES,IC50 (Human recombinant COX-2) [µM]
0.52,–,"Oc1ccc(C2OCC3C(c4ccc(O)c(O)c4)OCC23)cc1O (stereo not drawn) [compound 4, 3,3′-bisdemethylpinoresinol]",> 100
2.2,2.65 to 13.8 µM and 2.7 µM,"O=c1c(O)c(-c2ccc(O)cc2)oc2cc(O)cc(O)c12 [compound 6, kaempferol]",–
16.5,–,"COc1cc2ccc(=O)oc2cc1O [compound 7, scopoletin]",–
15.1,–,"COc1cc2oc(=O)ccc2cc1O [compound 8, isoscopoletin]",–

SMILES,IC50 (15-LO) [µM],IC50 (5-LO),IC50 (Human recombinant COX-2) [µM]
"O=C1OC(c2ccc(O)c(O)c2)C2COC(c3ccc(O)c(O)c3)C12 (single isomer, unassigned; (+)) [compound 1, (+)-3,4,3′,4′-tetrahydroxy-9,7′α-epoxylignano-7α,9′-lactone]",0.52,–,90.2
"OCC1C(c2ccc(O)c(O)c2)OCC1C(O)c1ccc(O)c(O)c1 (single isomer, unassigned; (+)) [compound 2, (+)-3,3′-bisdemethyltanegool]",0.76,–,73.9
"O=c1c(O)c(-c2ccc(O)c(O)c2)oc2cc(O)cc(O)c12 [compound 5, quercetin]",0.43,–,28.6
